Calls of active or inactive are those of the source. No rule for the calls is given here.
System: CCRIS mutagenicity, Ames/micronucleus/aberration tests
Assay: CCRIS mutagenicity studies
[1] = Test System: AMES SALMONELLA TYPHIMURIUM, Strain/Indicator: TA98, Metabolic Activation: NONE, Method: PREINCUBATION
[2] = Test System: AMES SALMONELLA TYPHIMURIUM, Strain/Indicator: TA100, Metabolic Activation: NONE, Method: PREINCUBATION
[3] = Test System: AMES SALMONELLA TYPHIMURIUM, Strain/Indicator: TA98, Metabolic Activation: NONE, Method: STANDARD PLATE
[4] = Test System: AMES SALMONELLA TYPHIMURIUM, Strain/Indicator: TA100, Metabolic Activation: NONE, Method: STANDARD PLATE

With `COC(=O)c1oc(NO)c(-c2ccccc2)c1-c1ccccc1` the mutagenic call [1] was “inactive; negative”, the mutagenic call (Test System: AMES SALMONELLA TYPHIMURIUM, Strain/Indicator: TA98, Metabolic Activation: RAT, LIVER, S-9, AROCLOR, Method: PREINCUBATION) was “inactive; negative” and the mutagenic call [2] was “inactive; negative”. The mutagenic call (Test System: AMES SALMONELLA TYPHIMURIUM, Strain/Indicator: TA100, Metabolic Activation: RAT, LIVER, S-9, AROCLOR, Method: PREINCUBATION) was “inactive; negative”.

`CN(C)CCCNc1c2ccccc2nc2c(N(CCO)CCO)ccc([N+](=O)[O-])c12` was tested, and the mutagenic call [3] was “active; positive” and the mutagenic call [4] was “active; positive”.

With `CC(=O)N(N=O)c1ccc2c(c1)Cc1ccccc1-2` the mutagenic call (Test System: CHINESE HAMSTER OVARY, Strain/Indicator: CHO/6-THIOGUANINE (HGPRT), Metabolic Activation: NONE, Method: STANDARD PLATE) was “active; positive” and the mutagenic call (Test System: CHINESE HAMSTER OVARY, Strain/Indicator: CHO/OUABAIN (HGPRT), Metabolic Activation: NONE, Method: STANDARD PLATE) was “active; positive”.

In the case of `Cn1ccc2ccc3ccc4ccc(O)cc4c3c21`, the mutagenic call (Test System: AMES SALMONELLA TYPHIMURIUM, Strain/Indicator: TA98, Metabolic Activation: RAT, LIVER, S-9, AROCLOR, Method: STANDARD PLATE) is reported as “active; positive”.

`C=CCN=C=S` was tested, and the mutagenic call (End Point: IN VITRO CHROMOSOMAL ABERRATIONS, Test System: CHINESE HAMSTER OVARY CELLS, Metabolic Activation: NONE) was “active; positive”, the mutagenic call (End Point: IN VITRO CHROMOSOMAL ABERRATIONS, Test System: CHINESE HAMSTER OVARY CELLS, Metabolic Activation: RAT, LIVER, S-9, AROCLOR 1254) was “active; positive” and the mutagenic call (End Point: IN VITRO CHROMOSOMAL ABERRATIONS, Test System: CHINESE HAMSTER OVARY CELLS, Metabolic Activation: RAT. LIVER, S-9, AROCLOR 1254) was “inactive; negative”. The mutagenic call (Test System: AMES SALMONELLA TYPHIMURIUM, Strain/Indicator: TA97, Metabolic Activation: NONE, Method: PREINCUBATION) was “inactive; negative”, the mutagenic call (Test System: AMES SALMONELLA TYPHIMURIUM, Strain/Indicator: TA97, Metabolic Activation: NONE, Method: PREINCUBATION (120 MIN)) was “inactive; negative” and the mutagenic call (Test System: AMES SALMONELLA TYPHIMURIUM, Strain/Indicator: TA97, Metabolic Activation: RAT, LIVER, S-9, AROCLOR 1254, Method: PREINCUBATION) was “inactive; negative”. The mutagenic call (Test System: AMES SALMONELLA TYPHIMURIUM, Strain/Indicator: TA97, Metabolic Activation: S-9, Method: PREINCUBATION (120 MIN)) was “inactive; negative”, the mutagenic call (Test System: AMES SALMONELLA TYPHIMURIUM, Strain/Indicator: TA98, Metabolic Activation: NONE, Method: PREINCUBATION (120 MIN)) was “inactive; negative” and the mutagenic call [3] was “inactive; negative”. The mutagenic call (Test System: AMES SALMONELLA TYPHIMURIUM, Strain/Indicator: TA98, Metabolic Activation: RAT LIVER S-9, AROCLOR 1254, Method: STANDARD PLATE) was “active; positive”, the mutagenic call (Test System: AMES SALMONELLA TYPHIMURIUM, Strain/Indicator: TA98, Metabolic Activation: S-9, Method: PREINCUBATION (120 MIN)) was “inactive; negative” and the mutagenic call (Test System: AMES SALMONELLA TYPHIMURIUM, Strain/Indicator: TA98, Metabolic Activation: S-9, Method: STANDARD PLATE) was “inactive; negative”. For the same compound, the mutagenic call (Test System: AMES SALMONELLA TYPHIMURIUM, Strain/Indicator: TA100, Metabolic Activation: NONE, Method: PREINCUBATION (20, 60 OR 120 MIN)) was “inactive; negative”, the mutagenic call (Test System: AMES SALMONELLA TYPHIMURIUM, Strain/Indicator: TA100, Metabolic Activation: NONE, Method: PREINCUBATION (120 MIN)) was “inactive; negative” and the mutagenic call [4] was “inactive; negative”. For the same compound, the mutagenic call (Test System: AMES SALMONELLA TYPHIMURIUM, Strain/Indicator: TA100, Metabolic Activation: RAT LIVER S-9, AROCLOR 1254, Method: STANDARD PLATE) was “active; positive”, the mutagenic call (Test System: AMES SALMONELLA TYPHIMURIUM, Strain/Indicator: TA100, Metabolic Activation: RAT, LIVER, S-9, AROCLOR 1254 (3.8 MG PROTEIN/ML), Method: PREINCUBATION (60 OR 120 MIN)) was “active; positive” and the mutagenic call (Test System: AMES SALMONELLA TYPHIMURIUM, Strain/Indicator: TA100, Metabolic Activation: RAT, LIVER, S-9, AROCLOR 1254 (3.8 OR 11.4 MG PROTEIN/ML), Method: PREINCUBATION (20 MIN)) was “inactive; negative”. For the same compound, the mutagenic call (Test System: AMES SALMONELLA TYPHIMURIUM, Strain/Indicator: TA100, Metabolic Activation: RAT, LIVER, S-9, AROCLOR 1254 (11.4 MG PROTEIN/ML), Method: PREINCUBATION (60 MIN)) was “inactive; negative”, the mutagenic call (Test System: AMES SALMONELLA TYPHIMURIUM, Strain/Indicator: TA100, Metabolic Activation: RAT, LIVER, S-9, AROCLOR 1254 (11.4 MG PROTEIN/ML), Method: PREINCUBATION (120 MIN)) was “active; positive” and the mutagenic call (Test System: AMES SALMONELLA TYPHIMURIUM, Strain/Indicator: TA100, Metabolic Activation: S-9, Method: PREINCUBATION (120 MIN)) was “inactive; negative”. The mutagenic call (Test System: AMES SALMONELLA TYPHIMURIUM, Strain/Indicator: TA100, Metabolic Activation: S-9, Method: STANDARD PLATE) was “inactive; negative”, the mutagenic call (Test System: AMES SALMONELLA TYPHIMURIUM, Strain/Indicator: TA102, Metabolic Activation: NONE, Method: PREINCUBATION) was “inactive; negative” and the mutagenic call (Test System: AMES SALMONELLA TYPHIMURIUM, Strain/Indicator: TA102, Metabolic Activation: RAT, LIVER, S-9, AROCLOR 1254, Method: PREINCUBATION) was “inactive; negative”. For the same compound, the mutagenic call (Test System: UDS RAT HEPATOCYTES, Strain/Indicator: THY-INCORP, Metabolic Activation: IN VIVO, Method: AUTORADIOGRAPHY) was “inactive; negative”.

For `O=C1c2ccccc2-c2c1c1ccccc1c(=O)n2CCNCCO`, the mutagenic call (Test System: AMES SALMONELLA TYPHIMURIUM, Strain/Indicator: TA97, Metabolic Activation: NONE, Method: STANDARD PLATE) was “inactive; negative”, the mutagenic call (Test System: AMES SALMONELLA TYPHIMURIUM, Strain/Indicator: TA97, Metabolic Activation: RAT, LIVER, S-9, PHENOBARBITAL AND ALPHA-NAPHTHOFLAVONE, Method: STANDARD PLATE) was “inactive; negative” and the mutagenic call [3] was “inactive; negative”. The mutagenic call (Test System: AMES SALMONELLA TYPHIMURIUM, Strain/Indicator: TA98, Metabolic Activation: RAT, LIVER, S-9, PHENOBARBITAL AND ALPHA-NAPHTHOFLAVONE, Method: STANDARD PLATE) was “inactive; negative”, the mutagenic call [4] was “inactive; negative” and the mutagenic call (Test System: AMES SALMONELLA TYPHIMURIUM, Strain/Indicator: TA100, Metabolic Activation: RAT, LIVER, S-9, PHENOBARBITAL AND ALPHA-NAPHTHOFLAVONE, Method: STANDARD PLATE) was “inactive; negative”. For the same compound, the mutagenic call (Test System: AMES SALMONELLA TYPHIMURIUM, Strain/Indicator: TA1535, Metabolic Activation: NONE, Method: STANDARD PLATE) was “inactive; negative” and the mutagenic call (Test System: AMES SALMONELLA TYPHIMURIUM, Strain/Indicator: TA1535, Metabolic Activation: RAT, LIVER, S-9, PHENOBARBITAL AND ALPHA-NAPHTHOFLAVONE, Method: STANDARD PLATE) was “inactive; negative”.

For `c1ccc2c(c1)cc1ccc3cccc4c5ccccc5c2c1c34`, the mutagenic call (End Point: In vitro micronucleus, Test System: V79MZ Chinese hamster fibroblasts, Metabolic Activation: None) was “inactive; negative”, the mutagenic call (End Point: In vitro micronucleus, Test System: V79MZ-h1A1 Chinese hamster fibroblasts (expressing human CYP1A1), Metabolic Activation: None) was “active; positive” and the mutagenic call (End Point: In vitro micronucleus, Test System: V79MZ-h1B1 Chinese hamster fibroblasts (expressing human CYP1B1), Metabolic Activation: None) was “active; positive”. For the same compound, the mutagenic call (Test System: AMES SALMONELLA TYPHIMURIUM, Strain/Indicator: TA98, Metabolic Activation: RAT, LIVER, S-9, AROCLOR 1254, Method: PREINCUBATION) was “active; positive”, the mutagenic call (Test System: AMES SALMONELLA TYPHIMURIUM, Strain/Indicator: TA100, Metabolic Activation: RAT, LIVER, S-9, AROCLOR 1254, Method: PREINCUBATION) was “active; positive” and the mutagenic call (Test System: CHINESE HAMSTER V-79, Strain/Indicator: V-79 (HPRT)/6-THIOGUANINE, Metabolic Activation: HUMAN MAMMARY CARCINOMA MCF-7 CELLS) was “active; positive”.

For `N[C@@H](CS/C=C/CCl)C(=O)O`, the mutagenic call [1] was “inactive; negative”, the mutagenic call [2] was “inactive; negative” and the mutagenic call (Test System: AMES SALMONELLA TYPHIMURIUM, Strain/Indicator: TA2638, Metabolic Activation: NONE, Method: PREINCUBATION) was “inactive; negative”.
